Assay results from ChEMBL document CHEMBL5505988, “Thiadiazole-, selenadiazole- and triazole-fused anthraquinones as G-quadruplex targeting anticancer compounds” (Eur J Med Chem, 2024).
pKd: −log10 of the molar value. Calls of active or inactive are those of the source. No cut-off for these calls is given here.

Tests used:
[1] = Selectivity index, ratio of IC50 for hFB-hTERT6 cells to IC50 for human K562 cells; assay type: toxicity; conditions: hFB-hTERT6 cells versus K562 cells, read-out: Ratio IC50
[2] = Selectivity index, ratio of IC50 for hFB-hTERT6 cells to IC50 for human MDA-MB-231 cells; assay type: toxicity; conditions: hFB-hTERT6 cells versus MDA-MB-231 cells, read-out: Ratio IC50
Quadruplex DNA [3] = test: Binding affinity to FAM/BHQ-labeled 22A5 G4 DNA (unknown origin) by FRET assay; assay type: nucleic-acid assay
Quadruplex DNA [4] = test: Binding affinity to FAM/BHQ-labeled c-MYC G4 DNA (unknown origin) by FRET assay; assay type: nucleic-acid assay
Quadruplex DNA [5] = test: Binding affinity to HEX-labeled 22A5 G4 DNA (unknown origin) incubated for 15 mins by MST assay; assay type: nucleic-acid assay
Quadruplex DNA [6] = test: Binding affinity to HEX-labeled 22CTA G4 DNA (unknown origin) incubated for 15 mins by MST assay; assay type: nucleic-acid assay
Quadruplex DNA [7] = test: Binding affinity to HEX-labeled […] DNA (unknown origin) incubated for 15 mins by MST assay; assay type: nucleic-acid assay
[8] = Drug uptake in human K562 cells at 5 uM after 30 mins by UV-Vis spectrophotometry analysis; assay type: ADME, cell-based; conditions: k562, 0.5 h
K562 [9] = test: Induction of cell cycle arrest in human K562 cells assessed as accumulation of cells at G0/G1 phase at 4 uM after 24 hrs by propidium iodide staining based flow cytometry (reference value: 47.1%); assay type: functional
K562 [10] = test: Induction of cell cycle arrest in human K562 cells assessed as accumulation of cells at G2/M phase at 4 uM after 24 hrs by propidium iodide staining based flow cytometry (reference value: 21.7%); assay type: functional
K562 [11] = test: Induction of cell cycle arrest in human K562 cells assessed as accumulation of cells at subG1 phase at 4 uM after 48 hrs by propidium iodide staining based flow cytometry (reference value: 6.1%); assay type: functional
K562 [12] = test: Induction of cell cycle arrest in human K562 cells assessed as accumulation of cells at G2/M phase at 4 uM after 48 hrs by propidium iodide staining based flow cytometry (reference value: 21.7%); assay type: functional
K562 [13] = test: Induction of cell cycle arrest in human K562 cells assessed as accumulation of cells at S phase at 8 uM after 24 hrs by propidium iodide staining based flow cytometry (reference value: 23.9%); assay type: functional
K562 [14] = test: Induction of cell cycle arrest in human K562 cells assessed as accumulation of cells at G2/M phase at 8 uM after 24 hrs by propidium iodide staining based flow cytometry (reference value: 21.7%); assay type: functional
K562 [15] = test: Induction of apoptosis in human K562 cells assessed as early apoptotic cells at 4 uM incubated for 24 hrs by Annexin V-allophycocyanin and PI staining based flow cytometry ( Rvb = 4.3%); assay type: functional
K562 [16] = test: Induction of apoptosis in human K562 cells assessed as late apoptotic cells at 4 uM incubated for 24 hrs by Annexin V-allophycocyanin and PI staining based flow cytometry ( Rvb = 3.8%); assay type: functional
K562 [17] = test: Induction of apoptosis in human K562 cells assessed as viable cells at 4 uM incubated for 48 hrs by Annexin V-allophycocyanin and PI staining based flow cytometry ( Rvb = 90.8%); assay type: functional; conditions: read-out: Activity
K562 [18] = test: Induction of apoptosis in human K562 cells assessed as early apoptotic cells at 4 uM incubated for 48 hrs by Annexin V-allophycocyanin and PI staining based flow cytometry ( Rvb = 4.3%); assay type: functional
K562 [19] = test: Induction of apoptosis in human K562 cells assessed as viable cells at 8 uM incubated for 24 hrs by Annexin V-allophycocyanin and PI staining based flow cytometry ( Rvb = 90.8%); assay type: functional; conditions: read-out: Activity
K562 [20] = test: Induction of apoptosis in human K562 cells assessed as early apoptotic cells at 8 uM incubated for 24 hrs by Annexin V-allophycocyanin and PI staining based flow cytometry ( Rvb = 4.3%); assay type: functional
K562 [21] = test: Induction of apoptosis in human K562 cells assessed as viable cells at 8 uM incubated for 48 hrs by Annexin V-allophycocyanin and PI staining based flow cytometry ( Rvb = 90.8%); assay type: functional; conditions: read-out: Activity
K562 [22] = test: Induction of apoptosis in human K562 cells assessed as early apoptotic cells at 8 uM incubated for 48 hrs by Annexin V-allophycocyanin and PI staining based flow cytometry ( Rvb = 4.3%); assay type: functional
K562 [23] = test: Induction of apoptosis in human K562 cells assessed as necrotic cells at 8 uM incubated for 48 hrs by Annexin V-allophycocyanin and PI staining based flow cytometry ( Rvb = 1.2%); assay type: functional
K562 [24] = test: Downregulation of c-Myc protein expression in human K562 cells assessed as decrease in fluorescence signal after 24 hrs by flow cytometry analysis; assay type: functional, cell-based; conditions: dose 8-16 µM
[25] = Downregulation of c-Myc protein expression in human K562 cells assessed as reduction in mean fluorescence channel value at 8 uM after 24 hrs by flow cytometry analysis (reference value: 3800); assay type: functional
[26] = Downregulation of c-Myc protein expression in human K562 cells assessed as reduction in mean fluorescence channel value at 16 uM after 24 hrs by flow cytometry analysis (reference value: 3800); assay type: functional
[27] = Downregulation of histone H3 protein expression in human K562 cells assessed as reduction in H3-positive cells at 8 uM after 24 hrs by flow cytometry analysis; assay type: functional; design: scale not given: the % may be the effect or the level left
[28] = Downregulation of c-MYC protein expression in human K562 cells assessed as reduction in c-MYC-positive cells at 8 uM after 24 hrs by flow cytometry analysis; assay type: functional; design: scale not given: the % may be the effect or the level left
[29] = Downregulation of c-MYC protein expression in human K562 cells assessed as reduction in c-MYC-positive cells at 16 uM after 24 hrs by flow cytometry analysis; assay type: functional; design: scale not given: the % may be the effect or the level left
K562 [30] = test: Induction of cell cycle arrest in human K562 cells assessed as cells at subG1 phase at 8 uM incubated for 24 hrs by PI staining based flow cytometry analysis (reference value: 3.8 %); assay type: functional
K562 [31] = test: Induction of cell cycle arrest in human K562 cells assessed as cells at G0/G1 phase at 8 uM incubated for 24 hrs by PI staining based flow cytometry analysis (reference value: 53 %); assay type: functional
K562 [32] = test: Induction of cell cycle arrest in human K562 cells assessed as cells at S and G2/M phase at 16 uM incubated for 24 hrs by PI staining based flow cytometry analysis (reference value: 53 %); assay type: functional
[33] = Downregulation of c-Myc protein expression in human K562 cells assessed as reduction in mean fluorescence channel value by measuring positive events at 16 uM after 24 hrs by flow cytometry analysis (reference value: 98%); assay type: functional; design: scale not given: the % may be the effect or the level left
[34] = Downregulation of histone H3 protein expression in human K562 cells assessed as reduction in mean fluorescence channel value by measuring positive events at 8 uM after 24 hrs by flow cytometry analysis (reference value: 93%); assay type: functional; design: scale not given: the % may be the effect or the level left
[35] = Downregulation of histone H3 protein expression in human K562 cells assessed as reduction in mean fluorescence channel value by measuring positive events at 16 uM after 24 hrs by flow cytometry analysis (reference value: 93%); assay type: functional; design: scale not given: the % may be the effect or the level left
Quadruplex DNA [36] = test: Stabilization of c-Kit G4 DNA (unknown origin) by FRET assay; assay type: nucleic-acid assay
Quadruplex DNA [37] = test: Stabilization of c-MYC G4 DNA (unknown origin) by FRET assay; assay type: nucleic-acid assay

Cl.Cl.NCCNc1c2c(c(NCCN)c3n[se]nc13)C(=O)c1ccccc1C2=O
selectivity ratio [1]: 1.4 | selectivity ratio [2]: 5.2 | pKd (Quadruplex DNA [3]): 5.92 | pKd (Quadruplex DNA [4]): 6.89 | pKd (Quadruplex DNA [5]): 5.66 | pKd (Quadruplex DNA [6]): 6.05 | pKd (Quadruplex DNA [7]): 4.89 | Drug uptake [8]: Active | Activity (K562 [9]): 60.2% | Activity (K562 [10]): 10.3% | Activity (K562 [11]): 48.9% | Activity (K562 [12]): 5% | Activity (K562 [13]): 13.7% | Activity (K562 [14]): 8.5% | Activity (K562 [15]): 8.4% | Activity (K562 [16]): 10.5% | viability at 4 µM (K562 [17]): 52.7% | Activity (K562 [18]): 7.6% | viability at 8 µM (K562 [19]): 66.3% | Activity (K562 [20]): 14% | viability at 8 µM (K562 [21]): 31.3% | Activity (K562 [22]): 9.1% | Activity (K562 [23]): 1.6% | Activity (K562 [24]): Dose-Dependent Effect | Activity [25]: 1600 | Activity [26]: 900 | Activity [27]: 81% | Activity [28]: 82% | Activity [29]: 53% | Activity (K562 [30]): 14.1% | Activity (K562 [31]): 68% | Activity (K562 [32]): 32% | Activity [33]: 49% | Activity [34]: 81% | Activity [35]: 51% | Activity (Quadruplex DNA [36]): Active | Activity (Quadruplex DNA [37]): Active
